Consider one compound from patent US12508243B2, “Compositions and methods for treating cancer and improving epithelial homeostasis” (The Regents of the University of California, priority 2019, dated 2025).

“Also recorded” adds a separate entry of the source.

For one data set, the system named is p-β-catenin^Y489. Description: Immunofluorescence staining of phosphorylated β-catenin localization in ABSCs. The class given is cell-based, mouse. The note with it: WIC1 added to CHIR-treated cultures. On the procedure: (§1) Mouse and human ABSCs were fixed in […] for 15 minutes followed by permeabilization with 0.50% Triton-X for 10 minutes. Cells were blocked using serum-free protein block (Dako X090930) for one hour at room temperature and overnight primary antibody incubation. Secondary antibodies were incubated for 1 hour in darkness, washed, and mounted using Vectashield hardest mounting medium with DAPI (Vector Labs H-1500). IF images were obtained using an LSM780 or LSM880 Zeiss confocal microscope and composite images generated using Fiji.
(§2) To determine whether the pathobiology observed in human patients can be modeled in vitro, mouse ABSCs (mABSCs) were treated with GSK3β inhibitor CHIR99021 (CHIR) under submerged culture conditions for 4 days to activate canonical Wnt signaling (FIG. 2A).

The subject of data set [1] is Wnt signaling target genes CCND1, MYC, CTNNB1. Description: qRT-PCR of downstream Wnt signaling target genes in ABSCs. The class given is cell-based, human. As to conditions: ABSCs under ALI conditions. How it is done:
(§3) RNA was isolated with the RNeasy Mini Kit (Qiagen 74104) following manufacturer's protocol and quantified using a NanoDrop Spectrophotometer (ThermoFisher). cDNA synthesis was performed using the TaqMan Reverse Transcription Reagents (ThermoFisher) as indicated by the company. qPCR was then performed using the TaqMan PCR Master Mix (Applied Biosystems) on the StepOne-Plus Real Time PCR System.
(§4) To assess whether WIC1 could reverse Wnt/β-catenin-induced ABSC hyperproliferation, human ABSCs were treated with either DMSO, CHIR, or CHIR+WIC1. […] It was then sought to determine if WIC1 could promote ABSC differentiation to ciliated cells under ALI conditions.

A further data set has as its system Trp63. As to the kind of experiment: Trp63 expression with CHIR and WIC1 treatment (FIG. 4F). The class given is cell-based. As to conditions: WIC1 treatment of CHIR-induced expression. How it is done: as §3
The subject of data set [2] is human ABSCs. Description: Air-liquid interface (ALI) differentiation assay with human ABSCs. The class given is cell-based. How it is done: (§5) 24-well 6.5 mm transwells with 0.4 μm pore polyester membrane inserts were coated with 0.2 mg/mL collagen type I dissolved in 60% ethanol and allowed to air dry. ABSCs were seeded at 100,000 cells per well and allowed to grow in the submerged phase of culture for 4-5 days with 500 μl media in the basal chamber and 200 μl media in the apical chamber. ALI cultures were then established and culture with only 500 μl media in the basal chamber, and cultures harvested at varying timepoints for immunofluorescence studies. Media was changed every other day and cultures were maintained at 37° C. and 5% C02. ABSCs were treated with the indicated concentrations of GSK3XV (Sigma 361558), CHIR or WIC1.
as §1, §4

Another data set deals with TP63. As to the kind of experiment: qRT-PCR of TP63 expression in BEAS2B cells. The data set is classed as cell-based, human. As to conditions: CHIR plus WIC1. On the procedure: as §3
In data set [3] the test system is mouse ABSCs (mABSCs). As to the kind of experiment: EdU proliferation assay in mouse ABSCs, submerged culture. As to conditions: 1 μM CHIR + 1 μM inhibitor, submerged culture 4 days. The data set is classed as cell-based. On the procedure: (§6) Mouse and human ABSCs were isolated following a previously published method. Briefly, mouse tracheas were dissected, cleaned, and incubated in 16 U/mL dispase for 30 minutes (1 hour for human) at room temperature. Tracheas were then incubated in 0.5 mg/mL DNase for another 30 minutes (1 hour for human) at room temperature. Epithelium was stripped and incubated in 0.1% Trypsin-EDTA for 30 minutes (1 hour for human) shaking at 37° C. to generate a single cell suspension. Isolated cells were passed through a 40 μm strainer and stained with fluorophore-conjugated antibodies against ITGA6 and TROP2. ITGA6+ TROP2+ cells were obtained via FACS that was completed using the BD FACSAria cell sorter.
(§7) In vitro proliferation was studied using the Click-iT EdU incorporation assay kit (Invitrogen C10337) following the company's protocol. Briefly, mouse and human AB SC cultures were treated with 10 μM EdU 6-8 hours prior to commencing IFs. Cells were fixed with […] for 15 minutes followed by permeabilization in 0.5% Triton-X for 20 minutes. EdU cocktail was incubated for 30 minutes in darkness followed by immunocytochemistry.
as §2

Data set [4] relates to human ABSCs. Description: Proliferation of human ABSCs treated with DMSO, CHIR or CHIR+WIC1. The data set is classed as cell-based. The note with it: CHIR+WIC1 vs CHIR. On the procedure: as §6, §7, §4
Data set [5] deals with mouse ABSCs (mABSCs). Description: Air-liquid interface (ALI) differentiation assay with mouse ABSCs. The class given is cell-based. The note with it: mABSCs, ALI. On the procedure:
as §5
Mouse ABSCs were grown in MTEC Plus media and MTEC serum-free media during the submerged and ALI phases of culture, respectively. MTEC base media is DMEM/Ham's F12 50/50 (Corning 15090CV). Table S1 and Table S2 indicate the media components and concentrations for MTEC Plus and MTEC serum-free media, respectively.
Mouse and human ABSCs were fixed in […] for 15 minutes followed by permeabilization with 0.50% Triton-X for 10 minutes. Cells were blocked using serum-free protein block (Dako X090930) for one hour at room temperature and overnight primary antibody incubation. Secondary antibodies were incubated for 1 hour in darkness, washed, and mounted using Vectashield hardest mounting medium with DAPI (Vector Labs H-1500). IF images were obtained using an LSM780 or LSM880 Zeiss confocal microscope and composite images generated using Fiji. […]

The subject of data set [6] is BEAS2B cells. Description: Cell Titer Glo toxicity assay in BEAS2B cells. The data set is classed as cell-based, human. On the procedure: (§8) For luciferase reporter assays conducted outside of the high-throughput drug screen, BEAS2B cells were seeded in a 96-well plate at 20,000 cells per well. The following day, cells were with treated DMSO, 5 μM CHIR99021 (CHIR; Tocris 4423), or 5 μM CHIR plus WIC2 (Key Organics GP-0355), Coumarin (Sigma C4261), or WIC1 for 24 hours. Lysis reactions were conducted using BrightGlo (Promega E1910) and incubated for two minutes at room temperature prior to transferring luminescence reactions to white-bottom, white-walled 96-well plates (Costar). Toxicity assays were conducted by adding Cell Titer Glo reagent (Promega) following manufacturer's protocol. Luminescence readings were conducted using the Clariostar plate reader.

In data set [7] the test system is BEAS2B cells. Description: Hoechst stain toxicity assay (nuclei count) in BEAS2B cells. As to conditions: CHIR+10 uM compound, 24 hours. The class given is cell-based, human.
Data set [8] relates to TCF/LEF luciferase reporter. As to the kind of experiment: TCF/LEF luciferase reporter assay in transduced BEAS2B cells (CHIR-induced). The data set is classed as cell-based, human. On the procedure:
BEAS2B cells (ATCC CRL-9609) were seeded in a 6-well plate and infected with Cignal lentiviral particles containing a TCF/LEF luciferase reporter (Qiagen CLS-018L). Cells were spin infected at 37° C. for one hour using a multiplicity of infection of 20. Cells were selected with 0.6 μg/mL puromycin to isolate stably expressing clones.
as §8
In light of the finding that Wnt/β-catenin signaling drives ABSC hyperproliferation, a small molecule inhibitors of the pathway that could restore airway homeostasis. A high-throughput drug screen was established to identify compounds capable of reducing TCF/LEF activity measured by a luciferase reporter induced by CHIR treatment in a 384-well format (FIG. 3A). Briefly, white-bottom 384-well plates (Greiner One) were precoated overnight with 0.01 mg/mL fibronectin from human plasma (Sigma F0895), 0.03 mg/mL rat tail collagen type I (Corning 354249), and 0.01 mg/mL BSA (ThermoFisher BP-9706) diluted in 50 uL of Airway Epithelial Cell Growth Medium (PromoCell C21060). Precoat was then aspirated and washed using 100 μL the BioTek EL406. A custom V&P pin tool mounted to a Beckman FX liquid handler was then used to pin […] of 10 mM stock compound. 2,000 BEAS2B cells per well were then seeded using the Multidrop. Cells were therefore treated with 1% DMSO, 5 μM CHIR, or 5 μM CHIR+10 μM pinned compound and incubated for 24 hours at 37° C. and 5% CO2. […] 25 μL BrightGlo (Promega) was subsequently added to each well using the BioTek EL405 and incubated for 2 minutes prior reading luminescence values with the Envision plate reader (FIG. 3B). […] Z′ factor values were used to assess assay quality and was calculated by: Z′=1-3(SD Total+SDBackground)/(MeanTotal−MeanBackground) where SDTotal and MeanTotal are the standard deviation and mean of signal for CHIR-treated wells, and SDBackground and MeanBackground are the standard deviation and mean of signal for DMSO-treated wells. The Z′ factor value was calculated to be 0.82.
A general note: Reporter assays use an easily measured gene product as a stand-in for the process of interest.

Consider `CCN1CCN(c2ccc(NC(=O)c3cc4ccccc4oc3=O)cc2)CC1` [WIC1], for which the “Nuclear localization of p-β-catenin^Y489” value with p-β-catenin^Y489 is reported as “decreased the nuclear localization”. For the same compound, the “mRNA expression of downstream Wnt signaling target genes (CCND1, MYC, CTNNB1)” value in [1] is reported as “decreased mRNA expression”. Further, the Trp63 expression entry in the data set on Trp63 is reported as “substantially reversed”. The Ciliated cell differentiation result in the data set on human ABSCs [2] (ABSCs, ALI, 100 nM vs DMSO) is listed as “significantly induced ciliated cell differentiation; also recorded: increased differentiation to ciliated cells”; in the data set with human ABSCs [2] (in vitro, concentration not given), “promoted ciliated cell differentiation”. Further, the TP63 expression entry in the data set with TP63 is “reduced”. Also, the “mABSC proliferation (EdU incorporation)” value in the data set on mouse ABSCs (mABSCs) [3] is on record as “decreased mABSC proliferation to a similar degree”. Moreover, the “Human ABSC proliferation” value with human ABSCs [4] is given as “significant reduction in ABSC proliferation; also recorded: reduced Wnt/β-catenin-driven human ABSC hyperproliferation”. Besides, in the data set on mouse ABSCs (mABSCs) [5] (100 nM inhibitor vs DMSO), the “Proportion of ciliated cells” value is given as “induced a greater proportion of ciliated cells”. Besides, the “Percentage of ciliated cells” value in the data set on mouse ABSCs (mABSCs) [5] (1 μM inhibitor vs DMSO) is “no effect on the percentage of ciliated cells”. Besides, the entries for the “Toxicity by Cell Titer Glo” value in the data set with BEAS2B cells [6] (10 μM) and with BEAS2B cells [6] (various concentrations) were “non-toxic” and “minimal toxicity at each concentration”, respectively. Besides, in the data set with BEAS2B cells [7], the “Toxicity by Hoechst stain” value was “no toxicity; also recorded: minimal toxicity”. Further, the “TCF/LEF activity, inhibitor comparison” value in data set [8] (100 nM and 1 μM, WIC1, MSAB, LF3, ICG001 compared) is “most potent inhibitor”. Besides, the “TCF/LEF luciferase reporter activity” value in [8] (CHIR-induced reporter, single treatment vs CHIR) was “decreased TCF/LEF luciferase reporter activity; also recorded: decreases TFC/LEF luciferase reporter activity; also recorded: suppressed TCF/LEF activity”. Moreover, the “TCF/LEF luciferase reporter activity, dose course” value in [8] (CHIR-induced reporter, various concentrations) is reported as “stepwise decrease in TCF/LEF activity; also recorded: Higher concentrations of WIC1 decrease TFC/LEF luciferase reporter activity to a greater extent”.
